# Experiments:
# [1] = test system: mouse aortic smooth muscle cell (mASMC); assay: mASMC proliferation by MTT assay; format: cell-based; details: PGD2 1 and 5 μM, 24 hr, confluent, quiescent SMC
# Description: FIG. 6 depicts the effect of PGD2 on mASMC proliferation. Confluent, quiescent SMC were treated with varies concentrations of PGD2. Cell proliferation was determined by MTT assay at 24 hr. Values are mean±S.E.M. (*: P<0.005, by One-way ANOVA and t test, n=6).
# The effect of PGD2 on mASMC proliferation was determined by MTT assay.
# [2] = test system: MAP Kinase (MAPK), phosphorylated ERK1/2, in mASMC; assay: MAPK activation in mASMC by Western analysis of SMC lysate; format: cell-based, mouse
# Description: FIG. 7 depicts the effect of PGD2 on MAPK activation in mASMC. Confluent, quiescent SMC were treated with 1 μM PGD2 for varies timepoints. Cells were lysed and the lysate was analyzed for phosphorylated ERK1/2 (upper panel) and MARK (lower panel) by Western analysis, using antibodies to phosphotyrosine −ERK1/2 and ERK1/2, respectively.
# The effect of PGD2 on activation of MAP Kinase (MAPK) was tested by Western analysis of SMC lysate.
structure (smiles),measurement,setting,value
"CCCCC[C@H](O)/C=C/[C@H]1C(=O)C[C@H](O)[C@@H]1C/C=C\CCCC(=O)O [PGD2, Prostaglandin D2]",effect on mASMC proliferation,[1],significantly promote mASMC proliferation
same,level of phosphorylated-MAPK1/2 over time,"[2]; 1 μM PGD2, after 15 min",returned to control levels
same,"activation of MAP Kinase (phosphorylated-MAPK1/2, 44 and 42 kDa)","[2]; 1 μM PGD2, as early as 10 min",induction of a phosphorylated-MAPK1/2
